This note sets out measurements from patent US20230131219A1, “USE OF AGONISTS TO AUGMENT CAR T FUNCTION IN SOLID TUMORS” (The University of North Carolina at Chapel Hill, priority 2019, published 2023).

Holding throughout (type): in vivo, FVB-Neu mice
Assay [1] has as its system NT2 tumors. Briefly: Single cell RNA sequencing of tumor infiltrating CD45+ immune cells. To be noted: DMXAA with Th/Tc17 CAR T cells. An excerpt:
At day 7 or day 10 after CAR-T therapy, tumors were bluntly resected and cut into small pieces and digested using Tumor Dissociation Kit, mouse (Miltenyi) in gentleMACS™ Dissociator (Miltenyi) according to manufacturer's instruction. After digestion, dead and dying cells were magnetically separated using a Dead Cell Removal Kit (Miltenyi), after which immune cells were magnetically enriched using CD45 (TIL) MicroBeads (Miltenyi). Single cells were partitioned using a Chromium Controller (10× Genomics), and gene expression sequencing libraries were generated using Chromium Single Cell 3′ Library & Gel Bead Kit v3 (10× Genomics). The libraries were pooled and sequenced using an Illumina NovaSeq 6000 (Illumina). Raw base call files were demultiplexed with Cell Ranger 3.1.0 (10× Genomics) and bcl2fastq Conversion Software v2.20.0 (Illumina).
Single cell results from Cell Ranger output was analyzed using Partek flow workstation (available at partek.com/application-page/single-cell-gene-expression/). In detail, single cell result from each sample of Cell Ranger output was filtered using single cell (QA/QC) filter to exclude doublets/multiplets, cells expressing genes <30 genes per cell and dead cells. Processed results were normalized using recommended method, including log normalization of gene expression and scaled to count per million. Following results were filtered out by feature (gene) that were not expressed in 99% of samples. Then the replicate samples were pooled and clustered with an unsupervised method based on PCA using the first 16 principle component. Clustered plots were visualized by t-SNE plot, where cells were clustered using shared nearest neighbor (SNN). Populations was determined by expression of key markers, including Cd3e (T cells), Adgre1 (macrophage) and Itgam and/or Itgax (myeloid cells), and T cells were further clustered by expression of Cd8 and Cd44 (activated CD8 T cells), lack of Cd44 (naive T cells), Cd4 Cd44 (activated CD4 T cells) and Cd4 Foxp3 (Treg). For comparison, samples from each treatment group was pooled by the mean expression to simulate bulk RNA-seq, and compared using GSA analysis directly. Gene hits that reached P<0.05 with more than 2 or less than −2 fold expression difference was reported and shown as a heat map for pooled samples (macrophage and myeloid cells) or Q<0.05 with 2 or −2 fold expression difference for non-pooled samples (T cells). Further detailed analysis steps can be found on Partek flow page (available at documentation.partek.com/pages/viewpage.action?pageId=12943422) and parameter setting was set as default unless indicated.

The test system of assay [2] is NT2 tumors. Briefly: Flow cytometry of CAR T cells in tumor microenvironment and spleen. The procedure: At indicated time points, tumors were bluntly resected and cut into small pieces and processed into a single-cell suspension using gentleMACS™ Dissociator (Miltenyi). Lymphocyte enrichment was achieved by isolating cells at the interface of 44% Percoll (Sigma-Aldrich) in media and Lympholyte-M (Cedarlane). Isolated immune cells were stained as described below. The lymphocyte fraction was not enriched in experiments where absolute cell number was determined.
Anti-Neu CAR T cells were detected using recombinant Neu/Her2.Fc fusion protein conjugated with PE (Neu-PE) (Creative Biomart). Antibodies used in in vitro assays included anti-CD45-FITC/e450 (30-F11, Invitrogen), anti-IFN-γ-APC (XMG1.2, Invitrogen), anti-TNF-PE-Cy7 (MP6-XT22, Invitrogen) and anti-IL-17A-PE (eBio17B7, Invitrogen). Tumor-infiltrating immune cells were detected and analyzed with anti-CD45-FITC, anti-CD3-e450 (17A2, Invitrogen), anti-CD4-BV510 (GKL.5, Biolegend), anti-CD8-APC-Cy7 (53-6.7 BD Biosciences), anti-CD44-PerCP5.5 (IM7, Invitrogen), anti-CD62L-APC (MEL-14, Invitrogen), anti-CD11b-BV711 (M1/70, Invitrogen), anti-F4/80-BV605 (BM8, Invitrogen), anti-Gr-1-Percp5.5 (RB6-8C5, Invitrogen), anti-PD-1-PE-Cy7 (J43, Invitrogen), anti-CD127-BV421 (A7R34, Biolegend), anti-KLGR1-BV605 (2F1, BD Bioscience). For in vivo intracellular protein staining, anti-Foxp3-PerCP5.5 (FJK-16S. Invitrogen), anti-Ki67-APC (SOLA15, Invitrogen) were used. Dead cells were excluded with Fixable Viability Stain 700 (BD Biosciences) and Fc receptors were blocked with Fc block (BD Biosciences). Cell number was determined using Count Bright Beads (Invitrogen). Data were collected using a BD LSR-Fortessa or BD Canto cytometer (BD Biosciences). Data were analyzed with FlowJo software (Treestar).
A general note: Flow cytometry measures light scatter and fluorescence of single cells or particles in a stream.

Assay [3] concerns NT2 tumors. As to the kind of experiment: Orthotopic murine breast tumor model: tumor growth and survival. The procedure:
8-12 week old female FVB-Neu mice (Jackson Labs) were used under a protocol approved by University of North Carolina Institutional Animal Care and Use Committee. For tumor inoculation, mice were intradermally injected with 5×10^4 NT2 tumor cells into an axillary mammary gland. 21 days later (day 0), 1.5×10^6 CD4+ and 1.5×10^6 CD8+ CAR T cells were injected intravenously. Tumors were measured twice weekly with calipers and the tumor area calculated as length×width. The change of tumor area was determined by subtracting the tumor area before CAR T injection with the value on the day of the measurement. Per institutional guidelines, tumor-bearing mice were sacrificed when the tumor area reached 200 mm^2 or loss of more than 20% of total body weight. For tumor-bearing animals receiving combination therapy, animals underwent lymphodepletion with 5 Gy of whole body irradiation (X-RAD 320, Precision X-Ray) one day prior to CAR T injection. In the morning of day 0 mice were injected with 500 μg of DMXAA (Tocris) distal to the site of tumor growth with CAR T cells injected in the afternoon. Starting 1 day after CAR T infusion, anti-PD-1 (J43, 200 μg/mouse), anti-Gr-1 (RB6-8C5, […]), and […] (R4-6A2, 250 μg/mouse) mAb were injected intraperitoneally into respective recipients.

Where [4] appears, read: DMXAA with Th/Tc17 CAR T cells, flow cytometry.
Setting [5] is: DMXAA prior to Th/Tc17 CAR-T cell infusion, compared to mock transduced T cells or Th/Tc17 CAR-T cells alone.

For `Cc1ccc2c(=O)c3cccc(CC(=O)O)c3oc2c1C` [DMXAA], the “expression of CXCL9 and CXCL10 by myeloid cells within the TME” value in the assay on NT2 tumors [1] was “increased expression”. In the assay with NT2 tumors [1] (day 7), the “expression of APOE, PTGS2 and AREG in myeloid cells” value was “reduced expression”; the “expression of BATF2, CXCL10, CCL5, SOCS1, NOS2 and IL12A in second myeloid cluster” value is listed as “greatly enhanced expression”; the “expression of genes associated with M1-like macrophages including NOS2 and INHBA” value is given as “increased expression”; the “presence of M2-like macrophages expressing RENTLA, MMRC1, FOLR2 and IL10 in the TME” value is “marked decrease”. Further, in the assay with NT2 tumors [1] (day 7, CD8+ CAR T cells), the “accumulation of T cells co-expressing TBX21, IFNG, CXCR3 and CCR5” value is recorded as “enhanced the accumulation”. Also, the “persistence of CAR T cells in the TME” value in the assay with NT2 tumors [2] (DMXAA given with 7/15 CAR T cells, at a site remote from the tumor) is reported as “enhanced the persistence”. Besides, in the assay with NT2 tumors [2] (DMXAA treatment, through day 10 post-therapy), the “number of CAR T cells” value is listed as “marked increase”. Besides, in the assay on NT2 tumors [2] (setting [4]), the “number and percentage of CD4+ CAR T cells” value is “increase in the number and percentage”; the “percentage and number of CAR T cells in the TME” value is on record as “greatly increased”. In the assay with NT2 tumors [3] (setting [5]), the anti-tumor efficacy entry is listed as “significantly improved” and the overall survival entry is reported as “significantly improved”. Further, the “requirement for tumor remission” value in the assay with NT2 tumors [3] (Th/Tc17 CAR-T, DMXAA, anti-PD-1 and anti-Gr1 treatment) is reported as “required for tumor remission”.
